How the values were obtained:
biliary emptying = experiment: in vivo biliary emptying model in fasted mice; conditions: Mus musculus, po, 1 h, administered orally one hour before the sacrifice, bile vesicle weight
Protocol: The compounds are administered orally one hour before the sacrifice. The bile vesicle is removed and then weighed and the results, expressed in mg/kg of body weight, reveal for the compound of Example 10, for example, an ED50 of 0.3 mg/kg.

CCKA receptors = experiment: in vitro affinity measurement, CCKA receptors; assay type: binding
Protocol: These compounds have formed the subject of in vitro affinity measurement studies concerning the CCKA receptors.
(§1) This affinity is between 0.5 and 100 nM with a selectivity for the CCKA receptors over the CCKB receptors which may reach a factor of 10,000 for the compound of Example 1, for example.

CCKB receptor = experiment: in vitro affinity measurement, CCKB receptor; assay type: binding
Protocol: as §1

SMILES | affinity for the CCKB receptor compared with that for the CCKA receptor (CCKB receptor) | other results
COc1cc(C)cc(OC)c1C1=NC(NC(=O)c2cc3ccccc3[nH]2)C(=O)N(C)c2ccccc21 (single isomer, unassigned; (+)) [Example 10, (+)-N-[2,3-dihydro-5-(2,6-dimethoxy-4-methylphenyl)-1-methyl-2-oxo-1H-1,4-benzodiazepin-3-yl]-1H-indole-2-carboxamide] | – | ED50 (biliary emptying): 0.3 mg/kg
COc1cc(C)cc(OC)c1C1=NC(NC(=O)c2cc3ccccc3[nH]2)C(=O)N(C)c2ccccc21 (stereo not shown) [Example 1, N-[2,3-dihydro-5-(2,6-dimethoxy-4-methylphenyl)-1-methyl-2-oxo-1H-1,4-benzodiazepin-3-yl]-1H-2-indolecarboxamide] | – | selectivity for the CCKA receptors over the CCKB receptors (factor) (CCKA receptors): 10,000
COc1cc(C)cc(OC)c1C1=NC(NC(=O)Nc2cccc(C)c2)C(=O)N(C)c2ccccc21 (stereo not shown) [Example 6, 1,3-dihydro-5-(2,6-dimethoxy-4-methylphenyl)-1-methyl-3-(3-methylphenylureido)-1,4-benzodiazepin-2-one] | identical to or greater than that obtained for the CCKA receptor | –
COc1cc(OC)c(C2=NC(NC(=O)Nc3cccc(C)c3)C(=O)N(C)c3ccccc32)c(OC)c1 (stereo not shown) [Example 7, 1,3-dihydro-1-methyl-3-(3-methylphenylureido)-5-(2,4,6-trimethoxyphenyl)-1,4-benzodiazepin-2-one] | identical to or greater than that obtained for the CCKA receptor | –
